# Test results as given in US8748566B2, “Pharmacologically active antiviral peptides and methods of use” (priority 2000, dated 2014).
# Peptide text beside a SMILES is read from it. * marks the point of attachment. Biotin = O=C1N[C@H]2[C@H](CS[C@H]2CCCCC(=O)*)N1; Ahx = NCCCCCC(=O)O
# Key:
# Format in all cases: cell-based
# hrR3 [1] = assay: LacZ+ virus (hrR3) entry assay; conditions: Table 3; read-out: Entry Blocking Activity (IC50)
# Description: Confluent Vero cell cultures in 96-well microtiter plates were switched to Hepes-buffered serum-free DMEM, cooled on ice to 4° C. for 30 min, and infected with hrR3 for 1 hour at 4° C. in 40 μl of medium. Unattached virus was removed by rinsing with ice-cold medium. Treatments with antiviral peptide SEQ ID NO:1, referred to as EB, or a control peptide which comprised the RRKK tetra-peptide (SEQ ID NO:16) attached to a scrambled version of the membrane transiting peptide RRKKLAALPLVLAAPLAVLA (SEQ ID NO:17) (referred to as EBX), or mock-treatments with peptide-free medium were carried out in serum-free DMEM as indicated. Virus entry was initiated by transferring cultures to 37° C. To inactivate any remaining extracellular virus, cultures were rinsed with PBS and exposed to low pH citrate buffer (40 mM citric acid, 10 mM KCl, 135 mM NaCl, pH 3.0, according to Highlander et al., J. Virol. 61:3356 (1987), for 1 min at 23° C. The citrate was rinsed off with PBS and cultures were maintained in serum-supplemented DMEM until they were fixed with 0.5% gluteraldehyde in 5×PBS for 30 min at 23° C., stained for β-galactosidase activity for 1 hour or overnight at 23° C. with X-gal (Fisher Biotech; BP 1615-1) in 1×PBS containing […], 1.3 mM K4Fe(CN)6, and 1.3 mM K3Fe(CN)6, and scored for the presence of blue lacZ^+ cells.
# In these studies, the hrR3 virus was pre-adsorbed to cells for 1 hour at 4° C. before ice cold 25 μM EB or EBX were added in serum-free DMEM. After an additional 1 hour at 4° C., cultures were shifted to 37° C. to initiate virus entry. At 15 min intervals following the temperature shift, any virus remaining outside the cells was inactivated by washing the cultures with low pH citrate buffer. Cultures were then rinsed and returned to peptide-free serum-supplemented DMEM until they were fixed and stained for f-galactosidase 8 hours after the temperature shift.
# This conclusion is strengthened by the finding that the EB-sensitive phase of infection with pre-adsorbed virus clearly precedes expression of lacZ genes in hrR3 infected cells (FIG. 7A). Again, hrR3 was pre-adsorbed to cells for 1 hour at 4° C., unattached virus was rinsed off, and cells were kept for an additional hour at 4° C. Cultures were then transferred to 23° C. for 30 min before they were switched to 37° C. The more gradual change to 37° C. allowed cell layers to remain intact through subsequent frequent medium changes. Immediately following viral adsorption, cells were treated with 50 μM EB for 1 hour periods at consecutive 1 hour intervals. Between 1 and 4 hours post-infection, virus entry was inhibited by 70-80%. […] Parallel cultures were immediately fixed after mock-treatments and stained with X-gal. In these cultures, blue (lacZ^+) cells first appeared 7 hours post-infection and their number increased nearly linearly for the next 3 hours (FIG. 7A, (∘)). By 7 hours post-infection, EB ceased to be inhibitory.
# hrR3 [2] = assay: Virucidal assay
# Description: […] The treated virus was diluted 200-fold with serum-supplemented DMEM and assayed for infectivity approximately 1 hour later in microtiter wells seeded with Vero cells (3.5×10^4 cells/well) 1 d earlier. Forty or 100 microliter volumes of diluted virus were adsorbed for 1 or 2 h at 37° C. and lacZ^+ cells were scored 8 hours later. In some experiments, aliquots of diluted virus were first dialyzed (Spectra/Por; MWCO 12-14,000) overnight at 4° C. against a 60-fold excess volume of Hepes-buffered serum-supplemented DMEM or forced by syringe through 0.22 μm membranes (Millex-GV; Millipore) before the remaining infectious virus was assayed.
# virus = assay: Anti-free virus activity (Table 3)
# HSV-1 KOS [3] = assay: Yield reduction assay (virus production in infected Vero cells)
# Description: Three days post-infection, Vero cell cultures in microtiter plates were frozen (−80° C.) and thawed (37° C.) three times. Cells were suspended by repeated pipetting and microtiter plates were spun for 10 min at 700×g in a Beckman model TJ-6 tabletop centrifuge. The virus-containing supernates were serially diluted in regular medium and titered on Vero cells. Plaques were counted after staining the monolayers with crystal violet as taught by Grau et al., Invest. Ophthalmol. Vis. Sci. 30:2474 (1989).
# Vero cell cultures as prepared in Example 1 were infected with HSV-1 and assayed for virus production as described in Example 1. The antiviral activity of an antiviral peptide according to the present invention EB (SEQ ID NO:1) was compared to the antiviral activity of the current HSV antiviral nucleoside standard, acyclovir. The two peptides were added to the Vero cells one hour prior to infection with HSV.
# HSV-1 KOS [4] = assay: Plaque reduction assay, HSV-1 KOS infection of Vero cell cultures; conditions: for antiviral activity compared with EB: plaque reduction (FIG. 1D, FIG. 2)
# Description: The procedures for growing Vero cells and preparing high titer stocks of HSV-1 KOS as described in (Grau et al., Invest. Ophthal. and Vis. Sci. 30: 2474 (1989)) were utilized. Vero cells were maintained in carbonate-buffered DMEM supplemented with 5% calf serum and 5% fetal bovine serum (regular medium). For some studies, cells were switched to serum-free DMEM buffered with 25 mM Hepes (pH 7.4) and allowed to adapt to that medium for 30 min prior to experimental treatments. Vero cells were seeded into wells (0.28 cm^2) of microtiter plates either at 3.5×10^4 cells/well for use 1 day later (8×10^4 cells/well) or at 1×10^4 cells/well for use 3 days later (2×10^5 cells/well).
# Confluent Vero cell cultures in microtiter plates were infected for 1 hour at 37° C. in 40 μl of medium. Except where indicated, peptide treatments in 40 μl of medium lasted from 1 hour before through 1 hour after infection. At the end of the adsorption period, the cultures were re-fed with 100 μl of regular medium. Plaque formation was scored 2 days later and the number of plaques scored per well was normalized to the number counted in the absence of peptide. Using an ocular micrometer, plaque size ([…]) was determined by measuring the largest plaque diameter (L) and the diameter at a 90° angle to that (S). The size of each of the first 40 scored plaques was measured except when a plaque included less than 10 rounded cells or touched the side of the well.
# [5] = 37° C., read-out: Virucidal Activity 37° C. (IC50)
# [6] = 4° C., read-out: Virucidal Activity 4° C. (IC50)
Molecule,IC50 (hrR3 [1]),Virucidal Activity 4° C. (IC50) (hrR3 [2]; 4° C.),Virucidal Activity 37° C. (IC50) (hrR3 [2]; 37° C.),IC50 (virus),IC50 (hrR3 [2]; [5]),further results
b-YGRKKRRQRRR-9x [bTAT-9x],67 µM,None,None,,,
"CC[C@H](C)[C@H](NC(=O)[C@H](CCCCN)NC(=O)[C@@H](NC(=O)[C@H](CCC(N)=O)NC(=O)[C@H](CCCNC(=N)N)NC(=O)CCCCCNC(=O)CCCC[C@@H]1SC[C@@H]2NC(=O)N[C@@H]21)[C@@H](C)CC)C(=O)N[C@@H](Cc1ccccc1)C(=O)N[C@@H](Cc1ccccc1)C(=O)N1CCC[C@H]1C(=O)N[C@@H](CC(N)=O)C(=O)N[C@@H](CCCNC(=N)N)C(=O)N[C@@H](CCCNC(=N)N)C(=O)N[C@@H](CCSC)C(=O)N[C@@H](CCCCN)C(=O)N[C@@H](Cc1ccccc1)C(=O)N[C@@H](CCCCN)C(=O)N[C@@H](CCCCN)C(N)=O [bHOMFF, b-RQIKI F FPNRRMK F KK-amide] ({Biotin-Ahx}-RQIKIFFPNRRMKFKK-NH2)",40 µM,None,None,34 µM,,
"CC(C)C[C@H](NC(=O)[C@H](CC(=O)O)NC(=O)[C@H](CC(N)=O)NC(=O)[C@@H](NC(=O)[C@@H](NC(=O)[C@H](C)NC(=O)CNC(=O)[C@H](C)NC(=O)[C@H](Cc1ccc(O)cc1)NC(=O)CNC(=O)[C@@H]1CCCN1C(=O)[C@H](CCCNC(=N)N)NC(=O)[C@H](CCCNC(=N)N)NC(=O)[C@H](CCCNC(=N)N)NC(=O)[C@H](CCC(N)=O)NC(=O)[C@H](CCCNC(=N)N)NC(=O)[C@H](CCCNC(=N)N)NC(=O)[C@H](CCCCN)NC(=O)[C@H](CCCCN)NC(=O)[C@H](CCCNC(=N)N)NC(=O)CNC(=O)[C@H](Cc1ccc(O)cc1)NC(=O)CCCCCNC(=O)CCCC[C@@H]1SC[C@@H]2NC(=O)N[C@@H]21)C(C)C)C(C)C)C(=O)O [bTAT-9, b-YGRKKRRQRRR-9] ({Biotin-Ahx}-YGRKKRRQRRRPGYAGAVVNDL-OH)",26 µM,None,None,8 µM,,
"Nc1nc2c(ncn2COCCO)c(=O)[nH]1 [acyclovir, reference compound]",,,,,,"antiviral activity, EB compared with acyclovir (HSV-1 KOS [3]; added one hour prior to infection, EB statement for concentrations exceeding 10 μM (FIG. 3)): highest antiviral activity at low dosages"
"N=C(N)NCCC[C@H](NC(=O)[C@@H](N)CCCNC(=N)N)C(=O)N[C@@H](CCCCN)C(=O)N[C@@H](CCCCN)C(=O)O [R-R-K-K tetramer, R-R-K-K, reference compound] (H-RRKK-OH; N-terminus and C-terminus assumed)",,,,,,"antiviral activity (HSV-1 KOS [4]; presence of serum, concentrations as high as 200 μM (FIG. 1A)): no antiviral activity"
RQIKIWFPNRRMKWKK [bHOMd],7 µM,None,,,115 µM,
CC(C)C[C@H](NC(=O)[C@H](C)NC(=O)[C@H](CC(C)C)NC(=O)[C@H](CC(C)C)NC(=O)[C@@H](NC(=O)[C@H](C)NC(=O)[C@@H]1CCCN1C(=O)[C@H](CC(C)C)NC(=O)[C@H](CC(C)C)NC(=O)[C@H](C)NC(=O)[C@@H](NC(=O)[C@H](C)NC(=O)[C@H](C)NC(=O)[C@H](CCCCN)NC(=O)[C@H](CCCCN)NC(=O)[C@H](CCCNC(=N)N)NC(=O)[C@H](CCCNC(=N)N)NC(=O)CCCCCNC(=O)CCCC[C@@H]1SC[C@@H]2NC(=O)N[C@@H]21)C(C)C)C(C)C)C(=O)N[C@@H](CC(C)C)C(=O)N[C@@H](C)C(=O)N1CCC[C@H]1C(=O)O [bEB] ({Biotin-Ahx}-RRKKAAVALLPAVLLALLAP-OH),15 µM,,,21 µM,35 µM,antiviral activity compared with EB (HSV-1 KOS [4]): essentially as effective as EB; IC50 (hrR3 [2]; [6]): 110 µM
"CC(C)C[C@H](NC(=O)[C@H](C)NC(=O)[C@H](CCCCN)NC(=O)[C@H](CC(C)C)NC(=O)[C@H](C)NC(=O)[C@H](CC(C)C)NC(=O)[C@H](CCCCN)NC(=O)[C@H](CC(C)C)NC(=O)[C@H](C)NC(=O)[C@H](CC(C)C)NC(=O)[C@H](CCCCN)NC(=O)CCCCCNC(=O)CCCC[C@@H]1SC[C@@H]2NC(=O)N[C@@H]21)C(=O)N[C@@H](CCCCN)C(=O)N[C@@H](C)C(=O)N[C@@H](C)C(=O)N[C@@H](CC(C)C)C(=O)N[C@@H](CCCCN)C(=O)N[C@@H](CC(C)C)C(=O)N[C@@H](C)C(N)=O [bKLA, b-KLALKLALKALKAALKLA-amide]",11 µM,,,4.5 µM,,IC50 (hrR3 [2]; [6]): 45 µM
"CC[C@H](C)[C@H](NC(=O)[C@H](CCCCN)NC(=O)[C@@H](NC(=O)[C@H](CCC(N)=O)NC(=O)[C@H](CCCNC(=N)N)NC(=O)CCCCCNC(=O)CCCC[C@@H]1SC[C@@H]2NC(=O)N[C@@H]21)[C@@H](C)CC)C(=O)N[C@@H](Cc1c[nH]c2ccccc12)C(=O)N[C@@H](Cc1ccccc1)C(=O)N1CCC[C@H]1C(=O)N[C@@H](CC(N)=O)C(=O)N[C@@H](CCCNC(=N)N)C(=O)N[C@@H](CCCNC(=N)N)C(=O)N[C@@H](CCSC)C(=O)N[C@@H](CCCCN)C(=O)N[C@@H](Cc1c[nH]c2ccccc12)C(=O)N[C@@H](CCCCN)C(=O)N[C@@H](CCCCN)C(=O)N1CCC[C@H]1C(=O)NCC(=O)N[C@@H](Cc1ccc(O)cc1)C(=O)N[C@@H](C)C(=O)NCC(=O)N[C@@H](C)C(=O)N[C@H](C(=O)N[C@H](C(=O)N[C@@H](CC(N)=O)C(=O)N[C@@H](CC(=O)O)C(=O)N[C@@H](CC(C)C)C(=O)O)C(C)C)C(C)C [bHOM-9, b-RQIKIWFPNRRMKWKK-9] ({Biotin-Ahx}-RQIKIWFPNRRMKWKKPGYAGAVVNDL-OH)",9 to 12 µM,None,,6 µM,115 µM,
NH2-RRKKAAVALLAV LLALLAPP-COOH (H-RRKKAAVALLAVLLALLAPP-OH) [EBPP],,,,,,antiviral activity compared with EB (HSV-1 KOS [4]): twice as active; antiviral activity compared with EB (HSV-1 KOS [3]; yield reduction (FIG. 1E; data not shown)): twice as active
